From patent publication US8648066B2 (Exelixis, Inc., priority 2009, dated 2014)
Several values for one entry are separate records, joined by “and”; a condition that tells them apart may be missing. Equal values may be shown once.

Each compound was assayed against mTOR/GbL/Raptor (mTORC1) (Homo sapiens, UniProt P42345) (assay: mTOR/GbL/Raptor (mTORC1) ELISA assay). Settings: phosphorylation of 4E-BP1; 0.2 nM mTORC1, 10 μM ATP; read-out: IC50 in this assay (mTORC1 ELISA).
Type: biochemical
Outline: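 Human mTORC1 (0.2 nM) phosphorylated 50 nM His-tagged 4E-BP1 with 10 µM ATP in HEPES pH 7.2 containing 10 mM MnCl2, 120 min at ambient temperature. Substrate was captured on Ni-chelate plates; phospho-4E-BP1 was detected by primary antibody and HRP secondary with luminescence.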

| IC50 | Structure (SMILES) |
| --- | --- |
| 250 to 1000 nM | COc1ccc2c(N3CCOc4ccc(-c5cnc6nc(C)[nH]c6c5)cc4C3)nc(CN(C)C)nc2c1 [Example 613, N,N-dimethyl-1-{4-[7-(2-methyl-1H-imidazo[4,5-b]pyridin-6-yl)-2,3-dihydro-1,4-benzoxazepin-4(5H)-yl]-7-(methyloxy)quinazolin-2-yl}methanamine] |
| 10 to 50 nM | Cc1nc2cc(-c3ccc4c(c3)CN(c3nc(CN(C)C)nc(C)c3C(C)C)CCO4)cnc2[nH]1 [Example 614, N,N-dimethyl-1-{4-methyl-5-(1-methylethyl)-6-[7-(2-methyl-3H-imidazo[4,5-b]pyridin-6-yl)-2,3-dihydro-1,4-benzoxazepin-4(5H)-yl]pyrimidin-2-yl}methanamine] |
| 50 to 250 nM | CN(C)Cc1nc2c(c(N3CCOc4ccc(-c5cnc(Cl)c(NS(C)(=O)=O)c5)cc4C3)n1)CC(C)(C)CC2 [Example 616, N-[2-chloro-5-(4-{2-[(dimethylamino)methyl]-6,6-dimethyl-5,6,7,8-tetrahydroquinazolin-4-yl}-2,3,4,5-tetrahydro-1,4-benzoxazepin-7-yl)puyridin-3-yl]methanesulfonamide] |
| 10 to 50 nM and 50 to 250 nM | CC(=O)Nc1nc2cc(-c3ccc4c(c3)CN(c3nc(CN(C)C)nc5c3CC(C)(C)CC5)CCO4)cnc2s1 [Example 617, N-[6-(4-{2-[(dimethylamino)methyl]-6,6-dimethyl-5,6,7,8-tetrahydroquinazolin-4-yl}-2,3,4,5-tetrahydro-1,4-benzoxazepin-7-yl)[1,3]thiazolo[5,4-b]pyridin-2-yl]acetamide] |
| 250 to 1000 nM | COc1ccc2c(N3CCOc4ccc(-c5cnc6sc(NC(C)=O)nc6c5)cc4C3)nc(CN(C)C)nc2c1 [Example 618, N-[6-(4-{2-[(dimethylamino)methyl]-7-(methyloxy)quinazolin-4-yl}-2,3,4,5-tetrahydro-1,4-benzoxazepin-7-yl)[1,3]thiazolo[5,4-b]pyridin-2-yl]acetamide] |
| 10 to 50 nM | CN(C)c1ncc(-c2ccc3c(c2)CN(c2ncnc4c2CC(C)(C)CC4)CCO3)cc1NS(C)(=O)=O [Example 619, N-{2-(dimethylamino)-5-[4-(6,6-dimethyl-5,6,7,8-tetrahydroquinazolin-4-yl)-2,3,4,5-tetrahydro-1,4-benzoxazepin-7-yl]pyridin-3-yl}methanesulfonamide] |
| 50 to 250 nM | CC1(C)CCc2ncnc(N3CCOc4ccc(-c5cnc(N)c(NS(C)(=O)=O)c5)cc4C3)c2C1 [Example 620, N-{2-amino-5-[4-(6,6-dimethyl-5,6,7,8-tetrahydroquinazolin-4-yl)-2,3,4,5-tetrahydro-1,4-benzoxazepin-7-yl]pyridin-3-yl}methanesulfonamide] |
| 250 to 1000 nM | CC1(C)CCc2ncnc(N3CCOc4ccc(-c5ccc(Cl)c(NS(C)(=O)=O)c5)cc4C3)c2C1 [Example 621] |

Second part, the compound before the results:

| Structure (SMILES) | IC50 |
| --- | --- |
| CCNCc1nc2c(c(N3CCOc4ccc(-c5cnc6nc(C)[nH]c6c5)cc4C3)n1)CC(C)(C)CC2 [Example 600, N-({6,6-dimethyl-4-[7-(2-methyl-1H-imidazo[4,5-b]pyridin-6-yl)-2,3-dihydro-1,4-benzoxazepin-4(5H)-yl]-5,6,7,8-tetrahydroquinazolin-2-yl}methyl)ethanamine] | ≤ 10 nM |
| Cc1nc2ncc(-c3ccc4c(c3)CN(c3nc(CNS(C)(=O)=O)nc5c3CC(C)(C)CC5)CCO4)cc2[nH]1 [Example 601, N-({6,6-dimethyl-4-[7-(2-methyl-1H-imidazo[4,5-b]pyridin-6-yl)-2,3-dihydro-1,4-benzoxazepin-4(5H)-yl]-5,6,7,8-tetrahydroquinazolin-2-yl)methyl)methanesulfonamide] | ≤ 10 nM |
| CCN(CC)Cc1nc2c(c(N3CCOc4ccc(-c5cnc6nc(C)[nH]c6c5)cc4C3)n1)CC(C)(C)CC2 [Example 602, N-({6,6-dimethyl-4-[7-(2-methyl-1H-imidazo[4,5-b]pyridin-6-yl)-2,3-dihydro-1,4-benzoxazepin-4(5H)-yl]-5,6,7,8-tetrahydroquinazolin-2-yl}methyl)-N-ethylethanamine] | 10 to 50 nM |
| CCN(Cc1nc2c(c(N3CCOc4ccc(-c5cnc6nc(C)[nH]c6c5)cc4C3)n1)CC(C)(C)CC2)C(C)C [Example 603, N-({6,6-dimethyl-4-[7-(2-methyl-1H-imidazo[4,5-b]pyridin-6-yl)-2,3-dihydro-1,4-benzoxazepin-4(5H)-yl]-5,6,7,8-tetrahydroquinazolin-2-yl}methyl)-N-ethylpropan-2-amine] | 50 to 250 nM |
| Cc1nc2ncc(-c3ccc4c(c3)CN(c3nc(CN(C)C5CC5)nc5c3CC(C)(C)CC5)CCO4)cc2[nH]1 [Example 604, N-({6,6-dimethyl-4-[7-(2-methyl-1H-imidazo[4,5-b]pyridin-6-yl)-2,3-dihydro-1,4-benzoxazepin-4(5H)-yl]-5,6,7,8-tetrahydroquinazolin-2-yl}methyl)-N-methylcyclopropanamaine] | 10 to 50 nM |
| CCN(C)Cc1nc2c(c(N3CCOc4ccc(-c5cnc6nc(C)[nH]c6c5)cc4C3)n1)CC(C)(C)CC2 [Example 605, N-({6,6-dimethyl-4-[7-(2-methyl-1H-imidazo[4,5-b]pyridin-6-yl)-2,3-dihydro-1,4-benzoxazepin-4(5H)-yl]-5,6,7,8-tetrahydroquinazolin-2-yl}methyl)-N-methylethanamine] | ≤ 10 nM |
| Cc1nc2ncc(-c3ccc4c(c3)CN(c3nc(CN(C)C(C)C)nc5c3CC(C)(C)CC5)CCO4)cc2[nH]1 [Example 606, N-({6,6-dimethyl-4-[7-(2-methyl-1H-imidazo[4,5-b]pyridin-6-yl)-2,3-dihydro-1,4-benzoxazepin-4(5H)-yl]-5,6,7,8-tetrahydroquinazolin-2-yl}methyl)-N-methylpropan-2-amine] | 10 to 50 nM |
| Cc1nc2ncc(-c3ccc4c(c3)CN(c3nc(CNC(C)C)nc5c3CC(C)(C)CC5)CCO4)cc2[nH]1 [Example 607, N-({6,6-dimethyl-4-[7-(2-methyl-1H-imidazo[4,5-b]pyridin-6-yl)-2,3-dihydro-1,4-benzoxazepin-4(5H)-yl]-5,6,7,8-tetrahydroquinazolin-2-yl}methyl)propan-2-amine] | ≤ 10 nM |
| COc1ccc2c(N3CCOc4ccc(-c5cnc(Cl)c(NS(C)(=O)=O)c5)cc4C3)ncnc2c1 [Example 608, N-(2-chloro-5-{4-[7-(methyloxy)quinazolin-4-yl]-2,3,4,5-tetrahydro-1,4-benzoxazepin-7-yl}pyridin-3-yl)methanesulfonamide] | 10 to 50 nM |
| COc1ccc2c(N3CCOc4ccc(-c5ccc(NC(C)=O)cc5)cc4C3)nc(C)nc2c1 [Example 609, N-(4-{4-[2-methyl-7-(methyloxy)quinazolin-4-yl]-2,3,4,5-tetrahydro-1,4-benzoxazepin-7-yl}phenyl)acetamide] | ≥ 2000 nM |
| CNc1ncnc(N2CCOc3ccc(-c4cnc5nc(C)[nH]c5c4)cc3C2)c1C [Example 610, N,5-dimethyl-6-[7-(2-methyl-1H-imidazo[4,5-b]pyridin-6-yl)-2,3-dihydro-1,4-benzoxazepin-4(5H)-yl]pyrimidin-4-amine] | 250 to 1000 nM |
| Cc1nc2cc(-c3ccc4c(c3)CN(c3nc(CN(C)C)ncc3C(C)C)CCO4)ccc2[nH]1 [Example 612, N,N-dimethyl-1-{4-[7-(2-methyl-1H-benzimidazol-5-yl)-2,3-dihydro-1,4-benzoxazepin-4(5H)-yl]-5-(1-methylethyl)pyrimidin-2-yl}methanamine] | 50 to 250 nM |
